{
  "source": "patent US9775902B2",
  "about": "“Compounds and methods for treatment of stroke” (FIBROGEN, INC, priority 2006, dated 2017)",
  "key": {"[1]": {"test_system": "C57BL/6 mice, permanent occlusion of the MCA", "test": "Permanent middle cerebral artery occlusion (pMCAO) in C57BL/6 mice: infarct volume and edema", "assay_type": "in vivo", "details": "for Percent Reduction in Edema / inhibition in vivo at up to 20 mg/kg: C57BL/6 mice pMCAO, 20-60 mg/kg i.v., compound given 0 hr; for inhibition in vivo at up to 20 mg/kg / inhibition in vivo at 60 mg/kg: Mus musculus, iv, read-out: Percent Reduction in Infarct Volume; for inhibition in vivo at up to 20 mg/kg: 24 h, 24 hours after MCA occlusion; for inhibition in vivo at 60 mg/kg: C57BL/6 pMCAO", "how_it_was_run": "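Male mice (25-35 g) under avertin anaesthesia had the distal MCA coagulated through a craniotomy; compound given as single i.v. bolus (20-60 mg/kg, 6 ml/kg in 5% dextrose with equimolar meglumine or NaOH) before or up to 8 h after occlusion.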"}, "VEGF": {"test_system": "VEGF", "test": "Plasma VEGF in mice after intravenous injection", "assay_type": "in vivo, Swiss Webster mice", "details": "mouse plasma, 20 mg/kg i.v., four hours after injection; for fold induction at 20 mg/kg: iv, 4 h, read-out: VEGF Fold Increase", "how_it_was_run": "(§1)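 Male Swiss Webster mice (29-34 g) received 20 mg/kg compound or vehicle by tail-vein injection in 5% dextrose with equimolar NaOH or meglumine. Plasma was collected 4 h later, and EPO and VEGF were measured by ELISA.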"}, "erythropoietin (EPO) [2]": {"test_system": "erythropoietin (EPO)", "test": "EPO expression in Kelly neuroblastoma cells", "assay_type": "cell-based", "details": "for EPO: conditioned media after overnight incubation", "how_it_was_run": "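Kelly neuroblastoma cells treated overnight with compound, 1% DMSO as negative control. EPO and VEGF secreted into conditioned media measured by QUANTIKINE immunoassay.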"}, "erythropoietin (EPO) [3]": {"test_system": "erythropoietin (EPO)", "test": "EPO expression in Hep3B cells (QUANTIKINE immunoassay of conditioned media)", "assay_type": "cell-based, Human", "details": "for Fold Increase Over Control: EPO, vs 1% DMSO control; for EPO: conditioned media after overnight incubation with compound", "how_it_was_run": "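Confluent Hep3B cells were switched to OPTI-MEM for about 24 h (20% O2, 5% CO2, 37 °C), then treated overnight with compound or 1% DMSO vehicle. EPO secreted into the conditioned medium was measured by QUANTIKINE immunoassay.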"}, "erythropoietin": {"test_system": "erythropoietin", "test": "Plasma EPO in mice after intravenous injection", "assay_type": "in vivo, Swiss Webster mice", "details": "mouse plasma, 20 mg/kg i.v., four hours after injection; for fold induction at 20 mg/kg: iv, 4 h, read-out: EPO Fold Increase; for EPO: mouse EPO ELISA kit (**)", "how_it_was_run": "as §1"}},
  "note": "Read-outs that look alike come from different tables or passages of the source.",
  "data": [
    {"smiles": "Cc1cccc(C)c1Oc1ccc2c(C#N)nc(C(=O)NCC(=O)O)c(O)c2c1", "note": "[Compound AL, {[1-Cyano-6-(2,6-dimethyl-phenoxy)-4-hydroxy-isoquinoline-3-carbonyl]-amino}-acetic acid]", "values": [
      {"measurement": "Percent Reduction in Edema", "setting": "[1]", "result": 73, "unit": "%"},
      {"measurement": "inhibition in vivo at up to 20 mg/kg", "setting": "[1]", "result": 43, "unit": "%"},
      {"measurement": "fold induction at 20 mg/kg", "setting": "VEGF", "result": 2.06},
      {"measurement": "VEGF", "setting": "VEGF", "result": 130, "unit": "pg/mL"},
      {"measurement": "EPO Fold Increase", "setting": "erythropoietin (EPO) [2]", "result": 11.31},
      {"measurement": "EPO", "setting": "erythropoietin (EPO) [2]", "result": 213.8, "unit": "mIU/ml"},
      {"measurement": "Fold Increase Over Control", "setting": "erythropoietin (EPO) [3]", "result": 13.9},
      {"measurement": "EPO", "setting": "erythropoietin (EPO) [3]", "result": 74.8, "unit": "mIU/ml"},
      {"measurement": "fold induction at 20 mg/kg", "setting": "erythropoietin", "result": 188},
      {"measurement": "EPO", "setting": "erythropoietin", "result": 22514, "unit": "pg/mL"}
    ]},
    {"smiles": "N#Cc1nc(C(=O)NCC(=O)O)c(O)c2c(Oc3ccc(F)cc3)cccc12", "note": "[Compound AS, {[1-Cyano-5-(4-fluoro-phenoxy)-4-hydroxy-isoquinoline-3-carbonyl]-amino}-acetic acid]", "values": [
      {"measurement": "Percent Reduction in Edema", "setting": "[1]", "result": 54, "unit": "%"},
      {"measurement": "inhibition in vivo at up to 20 mg/kg", "setting": "[1]", "result": 50, "unit": "%"},
      {"measurement": "fold induction at 20 mg/kg", "setting": "VEGF", "result": 0.57},
      {"measurement": "VEGF", "setting": "VEGF", "result": 20, "unit": "pg/mL"},
      {"measurement": "EPO Fold Increase", "setting": "erythropoietin (EPO) [2]", "result": 11.72},
      {"measurement": "EPO", "setting": "erythropoietin (EPO) [2]", "result": 221.5, "unit": "mIU/ml"},
      {"measurement": "Fold Increase Over Control", "setting": "erythropoietin (EPO) [3]", "result": 10.7},
      {"measurement": "EPO", "setting": "erythropoietin (EPO) [3]", "result": 40.5, "unit": "mIU/ml"},
      {"measurement": "fold induction at 20 mg/kg", "setting": "erythropoietin", "result": 102},
      {"measurement": "EPO", "setting": "erythropoietin", "result": 49305, "unit": "pg/mL"}
    ]},
    {"smiles": "COc1ccc(Oc2ccc3c(O)c(C(=O)NCC(=O)O)ncc3c2)cc1", "note": "[Compound F, {[4-Hydroxy-7-(4-methoxy-phenoxy)-isoquinoline-3-carbonyl]-amino}-acetic acid]", "values": [
      {"measurement": "Percent Reduction in Edema", "setting": "[1]", "result": 47, "unit": "%"},
      {"measurement": "inhibition in vivo at 60 mg/kg", "setting": "[1]; 0 h, 60 mg/kg single i.v. bolus (Meglumine vehicle), 0 hr after MCA occlusion", "result": 43, "unit": "%"},
      {"measurement": "inhibition in vivo at 60 mg/kg", "setting": "[1]; 0 h, 60 mg/kg single i.v. bolus (NaOH vehicle), 0 hr after MCA occlusion", "result": 50, "unit": "%"},
      {"measurement": "inhibition in vivo at 60 mg/kg", "setting": "[1]; 1 h, 60 mg/kg single i.v. bolus (NaOH vehicle), 1 hr after MCA occlusion", "result": 62, "unit": "%"},
      {"measurement": "inhibition in vivo at 60 mg/kg", "setting": "[1]; 3 h, 60 mg/kg single i.v. bolus (NaOH vehicle), 3 hr after MCA occlusion", "result": 53, "unit": "%"},
      {"measurement": "inhibition in vivo at 60 mg/kg", "setting": "[1]; 4 h, 60 mg/kg single i.v. bolus (Meglumine vehicle), 4 hr after MCA occlusion", "result": 36, "unit": "%"},
      {"measurement": "inhibition in vivo at 60 mg/kg", "setting": "[1]; 5 h, 60 mg/kg single i.v. bolus (NaOH vehicle), 5 hr after MCA occlusion", "result": 55, "unit": "%"},
      {"measurement": "inhibition in vivo at 60 mg/kg", "setting": "[1]; 6 h, 60 mg/kg single i.v. bolus (Meglumine vehicle), 6 hr after MCA occlusion", "result": 15, "unit": "%"},
      {"measurement": "inhibition in vivo at 60 mg/kg", "setting": "[1]; 8 h, 60 mg/kg single i.v. bolus (Meglumine vehicle), 8 hr after MCA occlusion", "result": 8, "unit": "%"},
      {"measurement": "inhibition in vivo at up to 20 mg/kg", "setting": "[1]", "result": 68, "unit": "%"},
      {"measurement": "fold induction at 20 mg/kg", "setting": "VEGF", "result": 2.21},
      {"measurement": "VEGF", "setting": "VEGF", "result": 64, "unit": "pg/mL"},
      {"measurement": "EPO Fold Increase", "setting": "erythropoietin (EPO) [2]", "result": 10.5},
      {"measurement": "EPO", "setting": "erythropoietin (EPO) [2]", "result": 65, "unit": "mIU/ml"},
      {"measurement": "Fold Increase Over Control", "setting": "erythropoietin (EPO) [3]", "result": 3.0},
      {"measurement": "EPO", "setting": "erythropoietin (EPO) [3]", "result": 369.4, "unit": "mIU/ml"},
      {"measurement": "fold induction at 20 mg/kg", "setting": "erythropoietin", "result": 254},
      {"measurement": "EPO", "setting": "erythropoietin", "result": 2283, "unit": "pg/mL"}
    ]}
  ]
}
